Where two headings read alike, the source gives them in different places.

These results are taken from patent US20250230138A1, “COMPOUNDS HAVING A T-STRUCTURE FORMED BY AT LEAST FOUR CYCLES FOR USE IN THE TREATMENT OF CANCER AND OTHER INDICATIONS” (TheRas, Inc., priority 2022, published 2025).

Assay [1] concerns the target KRAS-PI3Kα interaction (KRAS-Q25A binding to avi-tagged full length PI3Kα) (Homo sapiens (Human), UniProt P42336). Put plainly: Disrupting KRAS-PI3Kα interaction by SPR inhibition assay. To be noted: KRAS-Q25A at 20 μM, 25° C. On the procedure: SPR binding experiments were collected on a Biacore 8K Instrument (Cytiva). Neutravidin (Pierce) was amine coupled to the carboxymethylated dextran surface of a CM5 sensor chip (Cytiva) using standard amine coupling chemistry. The CM5 chip surface was first activated with 0.1 M N-hydroxy succinimide and 0.4 M N-ethyl-N′-(3-dimethyl aminopropyl) carbodiimide at a flow rate of 20 μL/min using 20 mM HEPES pH 7.4, 150 mM NaCl as the running buffer. Next, neutravidin was diluted to 20 μg/mL in 10 mM sodium acetate (pH 4.5) and injected on all flow cells until a density of approximately 10,000 response units (RU) was immobilized. Activated amine groups were quenched with an injection of 1 M ethanolamine (pH 8.0). 300-500 RU of avi-tagged full length PI3Kα was captured on all flow cells in 20 mM HEPES pH 7.4, 150 mM NaCl, 5 mM MgCl2, 1 mM TCEP, 0.05% tween 20, 5% DMSO buffer. KRAS-Q25A at 20 μM was mixed with 8 concentrations of compound (50 nM-100 μM) and injected over the full-length PI3Kα at 30 μL/min and 25° C. Steady-state levels of KRAS binding were recorded and fit with a 4-parameter inhibition model to determine the IC50 values.
(In general: In SPR one partner is held on a chip, and binding of the other changes the refractive index at the surface.)

A further assay relates to pAKT in BT474 cells. Put plainly: Cell-based pAKT HTRF assay in BT474 cells. The conditions noted are these: BT474 cells, 4 hr incubation, read-out: pAKT inhibition IC50 in BT474 cells. Put shortly: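 Cells grown in DMEM with 10% FBS were exposed to compounds for 4 hr in 0.25% DMSO, using a 9-point, 3-fold dilution series that starts at 3 μM. Lysates were incubated with d2 and Eu Cryptate antibodies for 4–24 h at room temperature, and HTRF was read at 615 nm emission.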
Background: In TR-FRET formats the signal depends on donor and acceptor labels being close together.

Assay [2] deals with Cys242 in human PIK3CA (157-299) (Homo sapiens (Human), UniProt P42336). The experiment in a line: Covalent modification assay using MALDI-TOF MS. To be noted: 4 h reaction time point. Type of assay: biochemical. Put shortly: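 Covalent adduct formation was read by linear-mode MALDI-TOF with sinapinic acid matrix, reported as modified-protein peak height divided by total protein peak heights. Reactions held PIK3CA (157-299) at 1 or 3.33 μM in HEPES/NaCl/MgCl2 buffer, pH 7.3, sampled after 15 min to 4 h at room temperature.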

The mark [3] stands for this setting: 3.33 μM protein target, 1:7.5 protein to compound ratio (compounds 1-852).
Setting [4] is: Homo sapiens, BT-474, Compounds 10-999.
The mark [5] stands for this setting: 1 μM protein target, 1:5 protein to compound ratio (compounds 853-1279).

Cys242 in human PIK3CA (157-299), sequence (P42336 157-299): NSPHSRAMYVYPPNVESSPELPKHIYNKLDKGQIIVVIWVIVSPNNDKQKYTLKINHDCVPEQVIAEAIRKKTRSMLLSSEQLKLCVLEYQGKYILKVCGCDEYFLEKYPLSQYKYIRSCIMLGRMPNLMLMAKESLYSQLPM
KRAS-PI3Kα interaction (KRAS-Q25A binding to avi-tagged full length PI3Kα), sequence (P42336 whole entry, looked up, stated change not applied): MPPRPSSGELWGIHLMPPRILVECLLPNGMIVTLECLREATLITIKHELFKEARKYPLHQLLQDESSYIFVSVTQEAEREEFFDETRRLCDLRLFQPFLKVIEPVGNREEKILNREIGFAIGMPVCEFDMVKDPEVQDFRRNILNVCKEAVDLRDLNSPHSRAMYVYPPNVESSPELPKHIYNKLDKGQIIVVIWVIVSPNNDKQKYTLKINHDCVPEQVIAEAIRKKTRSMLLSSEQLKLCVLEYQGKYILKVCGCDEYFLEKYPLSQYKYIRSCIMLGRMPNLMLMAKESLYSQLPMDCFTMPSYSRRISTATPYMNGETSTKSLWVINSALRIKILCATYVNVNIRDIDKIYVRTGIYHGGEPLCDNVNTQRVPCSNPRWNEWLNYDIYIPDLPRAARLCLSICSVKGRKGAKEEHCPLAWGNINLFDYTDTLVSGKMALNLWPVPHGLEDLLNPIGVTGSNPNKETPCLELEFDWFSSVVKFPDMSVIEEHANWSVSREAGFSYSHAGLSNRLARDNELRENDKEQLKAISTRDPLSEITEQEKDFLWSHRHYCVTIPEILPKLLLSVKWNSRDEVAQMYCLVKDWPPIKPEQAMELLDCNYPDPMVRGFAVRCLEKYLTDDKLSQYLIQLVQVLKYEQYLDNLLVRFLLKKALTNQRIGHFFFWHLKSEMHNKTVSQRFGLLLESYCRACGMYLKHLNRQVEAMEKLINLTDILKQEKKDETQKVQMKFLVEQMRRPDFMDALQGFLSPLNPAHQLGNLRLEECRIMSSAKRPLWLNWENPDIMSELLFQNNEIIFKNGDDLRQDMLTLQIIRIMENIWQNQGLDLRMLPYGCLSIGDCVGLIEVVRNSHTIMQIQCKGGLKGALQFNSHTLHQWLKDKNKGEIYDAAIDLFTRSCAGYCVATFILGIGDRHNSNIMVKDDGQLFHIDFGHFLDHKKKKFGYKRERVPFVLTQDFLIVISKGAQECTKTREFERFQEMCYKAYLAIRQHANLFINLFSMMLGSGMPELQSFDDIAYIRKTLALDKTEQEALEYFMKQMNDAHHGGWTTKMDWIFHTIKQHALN
KRAS-PI3Kα interaction (KRAS-Q25A binding to avi-tagged full length PI3Kα), sequence (P27986 whole entry partner, looked up): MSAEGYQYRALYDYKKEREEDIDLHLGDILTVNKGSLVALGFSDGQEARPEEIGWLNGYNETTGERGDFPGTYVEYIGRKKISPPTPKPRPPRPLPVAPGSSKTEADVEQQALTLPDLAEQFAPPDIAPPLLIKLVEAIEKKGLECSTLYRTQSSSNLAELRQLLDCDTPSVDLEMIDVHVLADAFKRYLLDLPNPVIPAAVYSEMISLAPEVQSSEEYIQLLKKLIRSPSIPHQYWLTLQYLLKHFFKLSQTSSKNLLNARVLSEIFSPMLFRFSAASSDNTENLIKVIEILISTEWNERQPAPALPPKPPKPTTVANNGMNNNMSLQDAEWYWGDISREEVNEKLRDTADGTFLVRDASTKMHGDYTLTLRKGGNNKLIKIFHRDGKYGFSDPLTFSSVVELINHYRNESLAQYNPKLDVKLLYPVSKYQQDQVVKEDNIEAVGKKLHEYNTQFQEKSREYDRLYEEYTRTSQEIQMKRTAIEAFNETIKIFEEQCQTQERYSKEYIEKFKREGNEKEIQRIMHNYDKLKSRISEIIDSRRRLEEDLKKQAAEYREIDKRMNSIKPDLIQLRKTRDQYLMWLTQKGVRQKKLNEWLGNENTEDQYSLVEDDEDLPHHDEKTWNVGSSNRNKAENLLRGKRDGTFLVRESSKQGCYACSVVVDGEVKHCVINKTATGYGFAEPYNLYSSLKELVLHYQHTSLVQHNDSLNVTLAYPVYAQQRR

For the compound `COCCOc1ccccc1-c1c(-c2ccccc2)nc(-c2ccc3c(c2)CCNC3)c2ccsc12` [Compound 4, 7-[2-(2-methoxyethoxy)phenyl]-6-phenyl-4-(1,2,3,4-tetrahydroisoquinolin-6-yl)thieno[3,2-c]pyridine], in assay [1], the IC50 (commonly the midpoint of a concentration-inhibition curve) was in the range of 5000 to 25000 nM.
Turning to `COCCOc1cc(F)ccc1-c1c(-c2nc(CO)cs2)nc(-c2ccc3c(c2)CCNC3)c2ccsc12` [compound 39], in assay [1], the IC50 fell in the range of 5000 to 25000 nM.
The compound `COCCOc1cc(F)ccc1-c1c(-c2cnn(CC(=O)NC(C)(C)C)c2)nc(-c2ccc3c(c2)CCNC3)c2ccsc12` [compound 24] returned a half-inhibitory concentration (IC50) in assay [1] below 5000 nM.
With `COCCOc1cc(F)ccc1-c1c(-c2cnn(CCNC(=O)C(C)C)c2)nc(-c2ccc3c(c2)CCNC3)c2ccsc12` [compound 21], the IC50 in assay [1] lay within 5000 to 25000 nM.
Same read-out and setting: with `COCCOc1ccccc1-c1c(-c2cccc(C#N)c2)nc(-c2ccc3c(c2)CCNC3)c2c1CCC2` [compound 2] the figure was above 25000 nM; with `COCCOc1cc(F)ccc1-c1c(-c2cnn(CCC(=O)NC(C)(C)C)c2)nc(-c2ccc3c(c2)CCNC3=O)c2ccsc12` [compound 37], 5000 to 25000 nM; with `COCCOc1cc(F)ccc1-c1c(-c2nc3ccc(C(C)C)cc3[nH]2)nc(-c2ccc3c(c2)CCNC3)c2ccsc12` [compound 20], above 25000 nM.
`COCCOc1cc(F)ccc1-c1c(-c2c[nH]cn2)nc(-c2ccc3c(c2)CCNC3)c2ccsc12` [compound 34] had an IC50 in assay [1] of 5000 to 25000 nM.
Turning to `COCCOc1cc(F)ccc1-c1c(-c2ccc(=O)n(C(C)C)c2)nc(-c2ccc3c(c2)CCNC3)c2ccsc12` [compound 26], in assay [1], the concentration for half-maximal inhibition (IC50) was below 5000 nM.
The same measure, in the same setting: the value for `COCCOc1cc(F)ccc1-c1c(-c2ccc3cc[nH]c3c2)nc(-c2ccc3c(c2)CCNC3)c2ccsc12` [compound 45] was 5000 to 25000 nM.
On the same count and under the same terms, the value for `COCCOc1cc(F)ccc1-c1c(-c2cnn(CC(=O)N3CCCC3)c2)nc(-c2ccc3c(c2)CCNC3)c2ccsc12` [compound 25] was 5000 to 25000 nM.
Consider `COCCOc1cc(F)ccc1-c1c(-c2ccc3c(c2)CCN(C)C3)nc(-c2ccc3c(c2)CCNC3)c2ccsc12` [compound 229], for which the 50% inhibitory concentration (IC50) in assay [1] was below 5000 nM; with pAKT in BT474 cells (Compounds 10-999), above 3000 nM.
In turn, `COCCOc1cc(F)ccc1-c1c(-c2cccc(CNC(=O)C3CCCC3)c2)nc(-c2ccc3c(c2)CCNC3)c2ccsc12` [compound 27] registered an IC50 in assay [1] below 5000 nM.
The same measure, in the same setting: the value for `COCCOc1ccccc1-c1c(-c2ccc(=O)n(C)c2)nc(-c2ccc3c(c2)CCNC3)c2c1CCC2` [compound 5] was above 25000 nM; that for `COCCOc1ccccc1-c1c(-c2ccccc2)nc(-c2ccc3c(c2)CCNC3)c2c1CCC2` [compound 3] was above 25000 nM.
`C=CC(=O)N1CCn2nc(-c3nc(-c4ccc5c(c4)C(=O)N(C)C5)c4ccsc4c3-c3c(F)cc(F)cc3OCCOC)cc2[C@H]1C` [Compound 846]: the “% of modification” value in assay [2] (setting [3]) is “A (percent of modification of PIK3CA protein ≥75%)”. Moreover, the IC50 in the assay with pAKT in BT474 cells (Compounds 10-999) was below 100 nM.
For `C=C(F)C(=O)N1CCn2nc(-c3nc(-c4cnn(C)c4)c4ccsc4c3-c3ccc(F)cc3OC(C)C)cc2C1` [Compound 295] the same measures were “B (50%<percent of modification <75%)” and 100 to 1000 nM.
In the same order, the values of `C=C(F)C(=O)N1CCn2nc(-c3nc(-c4ccc5c(c4)CCNC5=O)c4ccsc4c3-c3ccc(F)cc3OCC)cc2C1` [Compound 304] are “B (50%<percent of modification <75%)” and 100 to 1000 nM.
`C=CC(=O)N1Cc2cc(-c3nc(-c4ccc5c(cnn5C)c4)c4ccsc4c3-c3c(F)cc(F)cc3OC[C@@H](C)O)nn2[C@@H](C)C1` [Compound 609]: the “% of modification” value in assay [2] (setting [3]) is on record as “A (percent of modification of PIK3CA protein ≥75%)”. Also, the IC50 in the assay on pAKT in BT474 cells (Compounds 10-999) was below 100 nM.
For the compound `C=CC(=O)N1[C@H](C)Cn2nc(-c3nc(-c4ccc5c(c4)CCN(C)C5)c4ccsc4c3-c3c(F)cc(F)cc3OCCOC)cc2[C@@H]1C` [Compound 480, 1-((4S,6R)-2-(7-(2,4-difluoro-6-(2-methoxyethoxy)phenyl)-4-(2-methyl-1,2,3,4-tetrahydroisoquinolin-6-yl)thieno[3,2-c]pyridin-6-yl)-4,6-dimethyl-6,7-dihydropyrazolo[1,5-a]pyrazin-5(4H)-yl)prop-2-en-1-one], the “% of modification” value in assay [2] (setting [3]) is on record as “A (percent of modification of PIK3CA protein ≥75%)”. Besides, the IC50 with pAKT in BT474 cells (setting [4]) was below 100 nM.
As for `C=CC(=O)N1CCc2nc(-c3nc(-c4ccc5c(cnn5C)c4)c4ccsc4c3-c3c(F)cc(F)cc3OCCO)sc2C1` [Compound 1032], the “% of modification” value in assay [2] (setting [5]) was “D (percent of modification <25%)”. For the same compound, the IC50 with pAKT in BT474 cells (Compounds 1000-1279) was above 1000 nM.
Turning to `C=CC(=O)N1Cc2cc(-c3nc(-c4ccc5cn(C)nc5c4)c4ccsc4c3-c3c(F)cc(F)cc3OCCOC)nn2C[C@H]1C` [Compound 737], the “% of modification” value in assay [2] (setting [3]) was “A (percent of modification of PIK3CA protein ≥75%)”. In addition, the IC50 with pAKT in BT474 cells (Compounds 10-999) was below 100 nM.
`C=CC(=O)N1CCc2oc(-c3nc(-c4ccc5c(c4)CCNC5)c4ccsc4c3-c3ccc(F)cc3OC)nc2C1` [Compound 112, 1-[2-[7-(4-fluoro-2-methoxy-phenyl)-4-(1,2,3,4-tetrahydroisoquinolin-6-yl)thieno[3,2-c]pyridin-6-yl]-6,7-dihydro-4H-oxazolo[4,5-c]pyridin-5-yl]prop-2-en-1-one]: the “% of modification” value in assay [2] (setting [3]) is given as “A (percent of modification of PIK3CA protein ≥75%)”. Besides, the IC50 in the assay with pAKT in BT474 cells (setting [4]) lay within 100 to 1000 nM.
Take `C=CC(=O)N1CCc2nc(-c3nc(-c4ccc5c(c4)C(N)CC5)c4ccsc4c3-c3ccc(F)cc3OCCOC)sc2C1` (stereo not shown) [Compound 162]: the “% of modification” value in assay [2] (setting [3]) is listed as “A (percent of modification of PIK3CA protein ≥75%)”. In the assay on pAKT in BT474 cells (Compounds 10-999), the IC50 is below 100 nM.
In the case of `C=CC(=O)N1CCc2ncc(-c3nc(-c4ccc(=O)n(C(F)F)c4)c4ccsc4c3-c3c(F)cc(F)cc3OC(C)C)cc2C1` [Compound 335], the “% of modification” value in assay [2] (setting [3]) was “A (percent of modification of PIK3CA protein ≥75%)”. The IC50 with pAKT in BT474 cells (Compounds 10-999) was below 100 nM.
On to `C=CC(=O)N1CCC(n2cc(-c3nc(-c4cnn5c4CNCC5)c4ccsc4c3-c3ccc(F)cc3OCCOC)cn2)CC1` [Compound 71], for which the “% of modification” value in assay [2] (setting [3]) is given as “A (percent of modification of PIK3CA protein ≥75%)”. Also, in the assay with pAKT in BT474 cells (Compounds 10-999), the IC50 is 100 to 1000 nM.
Turning to `C=CC(=O)N1CCn2nc(-c3nc(-c4cnc5c(cnn5C)c4)c4ccsc4c3-c3c(F)cc(F)cc3OCCO)cc2C1C` (stereo not shown) [Compound 877], in assay [2] (setting [5]), the “% of modification” value is reported as “A (percent of modification of PIK3CA protein ≥75%)”. The IC50 in the assay on pAKT in BT474 cells (Compounds 10-999) was below 100 nM.
Consider `C=CC(=O)N1CCn2nc(-c3nc(-c4ccc5c(c4)C(=O)NC5)c4ccsc4c3-c3c(F)cc(F)cc3OCCO)cc2[C@H]1C` [Compound 852, 6-((S)-6-((R)-5-acryloyl-4-methyl-4,5,6,7-tetrahydropyrazolo[1,5-a]pyrazin-2-yl)-7-(2,4-difluoro-6-(2-hydroxyethoxy)phenyl)thieno[3,2-c]pyridin-4-yl)isoindolin-1-one], for which the “% of modification” value in assay [2] (setting [3]) is recorded as “A (percent of modification of PIK3CA protein ≥75%)”. For the same compound, the IC50 with pAKT in BT474 cells (setting [4]) was below 100 nM.
For `C=CC(=O)N1CCn2nc(-c3nc(-c4ccc5c(c4)CCN(C)C5)c4ccsc4c3-c3ccc(F)cc3OCCOC)cc2C1` [Compound 242], in assay [2] (setting [3]), the “% of modification” value is recorded as “A (percent of modification of PIK3CA protein ≥75%)”. For the same compound, in the assay on pAKT in BT474 cells (Compounds 10-999), the IC50 was below 100 nM.
In the same order, the values of `C=CC(=O)N1CCn2nc(-c3nc(-c4ccc5c(c4)CCN(C)C5)c4ccsc4c3-c3ccc(F)cc3OC)cc2C1` [Compound 265] are “A (percent of modification of PIK3CA protein ≥75%)” and below 100 nM.
In the same order, the values of `C=CC(=O)N1CCn2nc(-c3nc(-c4ccc5nn(C)cc5c4)c4ccsc4c3-c3c(F)cc(F)cc3OCCO)cc2[C@H]1C` [Compound 774] are “A (percent of modification of PIK3CA protein ≥75%)” and below 100 nM.
Take `C=CC(=O)N1CCn2nc(-c3nc(-c4ccnc(N)c4)c4ccsc4c3-c3ccc(F)cc3OCCOC)nc2C1` [Compound 193]: the “% of modification” value in assay [2] (setting [3]) is “A (percent of modification of PIK3CA protein ≥75%)”. The IC50 in the assay with pAKT in BT474 cells (Compounds 10-999) was below 100 nM.
`C=CC(=O)N1CCn2nc(-c3nc(-c4ccc5c(c4)CCN(C)C5)c4ccsc4c3-c3ccc(F)cc3OC(C)C)nc2C1` [Compound 271]: in assay [2] (setting [3]), the “% of modification” value is “A (percent of modification of PIK3CA protein ≥75%)”. The half-inhibitory concentration (IC50) in the assay on pAKT in BT474 cells (Compounds 10-999) is below 100 nM.
